We go through 33 compounds from patent US10544143B2, “4-azaindole compounds” (BRISTOL-MYERS SQUIBB COMPANY, priority 2017, dated 2020).

In assay [1] the target is human TLR9 (Homo sapiens (Human), UniProt Q9NR96). The experiment in a line: TLR9 inhibition reporter assay (HEK-Blue SEAP).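 Further: SEAP driven by an IFN-β minimal promoter with NF-κB and AP-1 sites, read after 22 h, compounds dosed 0.05 nM–50 µM, inhibition scaled between agonist plus DMSO and reference-inhibitor wells.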 The settings on record: read-out: TLR9 IC50; HEK-Blue cells overexpressing human TLR9, SEAP reporter, ODN2006 5 nM. (In general: A reporter such as luciferase makes a cellular process visible.)
Chain of human TLR9 (Q9NR96 26-1032): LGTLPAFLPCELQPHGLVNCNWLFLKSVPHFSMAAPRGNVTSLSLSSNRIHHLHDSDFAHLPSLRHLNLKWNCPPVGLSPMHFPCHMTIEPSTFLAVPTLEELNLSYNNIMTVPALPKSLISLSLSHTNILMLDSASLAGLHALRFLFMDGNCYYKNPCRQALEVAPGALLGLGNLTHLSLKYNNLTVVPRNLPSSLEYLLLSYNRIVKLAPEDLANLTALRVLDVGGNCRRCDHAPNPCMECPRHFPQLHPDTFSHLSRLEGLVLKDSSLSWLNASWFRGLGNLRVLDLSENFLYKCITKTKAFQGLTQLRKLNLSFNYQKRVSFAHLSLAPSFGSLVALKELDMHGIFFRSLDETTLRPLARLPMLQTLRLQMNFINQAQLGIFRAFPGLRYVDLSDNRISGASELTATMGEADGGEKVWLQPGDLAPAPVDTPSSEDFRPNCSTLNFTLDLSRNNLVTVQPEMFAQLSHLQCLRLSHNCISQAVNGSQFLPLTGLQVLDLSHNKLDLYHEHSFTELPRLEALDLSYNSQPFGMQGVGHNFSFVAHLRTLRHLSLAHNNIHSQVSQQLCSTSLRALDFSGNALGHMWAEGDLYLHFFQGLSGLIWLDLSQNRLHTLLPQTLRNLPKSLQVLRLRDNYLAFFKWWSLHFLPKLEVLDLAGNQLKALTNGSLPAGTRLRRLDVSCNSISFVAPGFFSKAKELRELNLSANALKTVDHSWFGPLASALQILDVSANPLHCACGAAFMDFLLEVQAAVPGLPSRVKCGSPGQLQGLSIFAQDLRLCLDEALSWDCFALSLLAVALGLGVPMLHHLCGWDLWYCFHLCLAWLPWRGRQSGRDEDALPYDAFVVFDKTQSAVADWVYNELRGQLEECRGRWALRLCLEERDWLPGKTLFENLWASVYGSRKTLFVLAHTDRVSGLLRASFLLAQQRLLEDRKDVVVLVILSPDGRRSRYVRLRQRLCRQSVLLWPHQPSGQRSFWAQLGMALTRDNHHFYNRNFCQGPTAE
In assay [2] the target is human TLR7 (Homo sapiens (Human), UniProt Q9NYK1). The experiment in a line: TLR7 inhibition reporter assay (HEK-Blue SEAP). It counts as cell-based. The conditions noted are these: HEK-Blue cells overexpressing human TLR7, SEAP reporter, gardiquimod 7.5 μM.
Chain of human TLR7 (Q9NYK1 27-1049): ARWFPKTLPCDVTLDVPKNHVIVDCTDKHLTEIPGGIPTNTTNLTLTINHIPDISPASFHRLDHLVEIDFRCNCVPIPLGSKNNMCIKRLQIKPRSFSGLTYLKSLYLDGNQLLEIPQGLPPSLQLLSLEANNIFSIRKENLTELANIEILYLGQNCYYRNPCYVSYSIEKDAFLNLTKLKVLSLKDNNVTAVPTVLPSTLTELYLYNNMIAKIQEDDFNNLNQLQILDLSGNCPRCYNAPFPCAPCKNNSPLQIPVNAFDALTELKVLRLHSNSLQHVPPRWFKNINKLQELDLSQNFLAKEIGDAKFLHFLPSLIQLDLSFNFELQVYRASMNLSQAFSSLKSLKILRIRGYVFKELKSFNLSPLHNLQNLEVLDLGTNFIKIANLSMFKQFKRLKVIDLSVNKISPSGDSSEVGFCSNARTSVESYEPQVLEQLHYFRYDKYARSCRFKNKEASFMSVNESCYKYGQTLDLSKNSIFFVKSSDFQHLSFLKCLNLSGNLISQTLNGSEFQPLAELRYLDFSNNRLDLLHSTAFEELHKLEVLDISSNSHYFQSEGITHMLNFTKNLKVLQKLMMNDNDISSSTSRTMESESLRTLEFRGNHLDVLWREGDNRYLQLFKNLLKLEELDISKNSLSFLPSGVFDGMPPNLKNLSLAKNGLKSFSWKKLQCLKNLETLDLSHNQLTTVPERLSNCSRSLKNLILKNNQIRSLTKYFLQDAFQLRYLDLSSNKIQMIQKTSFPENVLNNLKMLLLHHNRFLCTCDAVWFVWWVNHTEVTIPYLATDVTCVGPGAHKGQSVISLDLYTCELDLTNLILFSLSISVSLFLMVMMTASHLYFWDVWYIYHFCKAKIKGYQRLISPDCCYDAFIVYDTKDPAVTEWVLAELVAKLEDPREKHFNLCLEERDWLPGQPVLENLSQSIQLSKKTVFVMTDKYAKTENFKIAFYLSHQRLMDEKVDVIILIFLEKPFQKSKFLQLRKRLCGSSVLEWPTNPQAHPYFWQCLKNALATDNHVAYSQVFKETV
For assay [3], the target named is human TLR8 (Homo sapiens (Human), UniProt Q9NR97). The experiment in a line: TLR8 inhibition reporter assay (HEK-Blue SEAP).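 Further: SEAP driven by IFN-β minimal promoter carrying NF-κB and AP-1 sites, compounds dosed 0.05 nM to 50 µM for 22 h, inhibition scaled between agonist-plus-DMSO and reference-inhibitor wells.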 The settings on record: read-out: TLR8 IC50; HEK-Blue cells overexpressing human TLR8, SEAP reporter, R848 15.9 μM.
Chain of human TLR8 (Q9NR97 27-1041): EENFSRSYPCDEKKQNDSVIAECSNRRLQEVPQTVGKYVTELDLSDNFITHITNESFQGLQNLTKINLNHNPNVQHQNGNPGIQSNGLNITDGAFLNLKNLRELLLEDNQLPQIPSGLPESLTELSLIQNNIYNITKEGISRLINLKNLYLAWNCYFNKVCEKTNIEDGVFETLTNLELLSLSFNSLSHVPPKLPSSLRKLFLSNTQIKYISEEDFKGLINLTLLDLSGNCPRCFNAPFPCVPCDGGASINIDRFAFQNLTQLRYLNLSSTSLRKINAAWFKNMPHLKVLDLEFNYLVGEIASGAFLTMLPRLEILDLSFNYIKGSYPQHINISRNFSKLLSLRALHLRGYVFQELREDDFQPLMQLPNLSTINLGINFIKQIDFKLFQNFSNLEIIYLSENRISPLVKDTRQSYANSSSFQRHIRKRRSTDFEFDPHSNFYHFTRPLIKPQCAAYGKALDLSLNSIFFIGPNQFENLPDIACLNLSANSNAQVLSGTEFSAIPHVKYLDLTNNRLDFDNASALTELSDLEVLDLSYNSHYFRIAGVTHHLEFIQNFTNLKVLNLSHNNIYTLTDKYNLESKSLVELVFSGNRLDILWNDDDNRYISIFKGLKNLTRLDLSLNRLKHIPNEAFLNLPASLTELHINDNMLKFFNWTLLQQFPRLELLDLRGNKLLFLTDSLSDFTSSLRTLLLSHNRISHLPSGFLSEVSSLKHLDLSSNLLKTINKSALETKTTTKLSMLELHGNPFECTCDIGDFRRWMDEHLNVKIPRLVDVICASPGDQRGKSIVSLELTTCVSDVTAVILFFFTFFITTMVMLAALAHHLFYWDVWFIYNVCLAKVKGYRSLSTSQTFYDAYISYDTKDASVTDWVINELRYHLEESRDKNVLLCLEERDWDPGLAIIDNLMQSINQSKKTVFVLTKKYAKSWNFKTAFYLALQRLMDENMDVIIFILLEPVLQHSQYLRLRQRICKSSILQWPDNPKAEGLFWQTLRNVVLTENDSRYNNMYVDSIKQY

Usually IC50 stands for the concentration at which inhibition is half-maximal. As to `Cc1c(-c2[nH]c3ccc(C4CCN(CC(=O)N(C)C)CC4)nc3c2C(C)C)cn(C)c(=O)c1Cl` [Example 567], the results for the IC50 in assay [1], in assay [2] and in assay [3] were 2320 nM, 18 nM and 18 nM, respectively.

As for `CCCN1CCC(c2ccc3[nH]c(-c4cn(C)c(=O)c(Cl)c4C)c(C(C)C)c3n2)CC1` [Example 568], the IC50 in assay [1] was found to be 2080 nM; in assay [2], 6 nM; in assay [3], 3.8 nM.

Take `Cc1c(-c2[nH]c3ccc(C4CCN(CC(C)C)CC4)nc3c2C(C)C)cn(C)c(=O)c1Cl` [Example 569]: the IC50 in assay [1] was 2180 nM; in assay [2] it was 11 nM; in assay [3], 3 nM.

Take `Cc1c(-c2[nH]c3ccc(C4CCN(C(=O)CN(C)C)CC4)nc3c2C(C)C)cn(C)c(=O)c1Cl` [Example 570]: the figures for the half-inhibitory concentration (IC50) in assay [1], in assay [2] and in assay [3] were 143 nM, 10 nM and 57 nM, respectively.

As to `Cc1cc2[nH]c(-c3cc(C)c4ncnn4c3)c(C(C)C)c2nc1C1CCN(CC(C)(C)O)CC1` [Example 572], the IC50 came to 1200 nM in assay [1], 4.6 nM in assay [2] and 25 nM in assay [3].

In the case of `COc1cc(-c2[nH]c3cc(F)c(C4CCN(CCS(C)(=O)=O)CC4)nc3c2C(C)C)cn2ncnc12` [Example 573], the results for the concentration for half-maximal inhibition (IC50) in assay [1], in assay [2] and in assay [3] were 3230 nM, 0.99 nM and 9.1 nM, respectively.

For the compound `COc1cc(-c2[nH]c3cc(F)c(C4CCN(C5COC5)CC4)nc3c2C(C)C)cn2ncnc12` [Example 574], the 50% inhibitory concentration (IC50) in assay [1] came out at 11900 nM; in assay [2], 3 nM; in assay [3], 47 nM.

Regarding `Cc1cc2[nH]c(-c3cc(C)c4ncnn4c3)c(C(C)C)c2nc1C1CCN(C2CCOCC2)CC1` [Example 575], the values for the IC50 in assay [1], in assay [2] and in assay [3] were 1350 nM, 0.44 nM and 121 nM, respectively.

Turning to `COc1cc(-c2[nH]c3cc(F)c(C4CCN(C(=O)CN(C)C)CC4)nc3c2C(C)C)cn2ncnc12` [Example 577], the IC50 in assay [1] is 1880 nM; in assay [2], 0.69 nM; in assay [3], 7.4 nM.

Take `Cc1cc2[nH]c(-c3cc(C)c4ncnn4c3)c(C(C)C)c2nc1C1CCN(C2COC2)CC1` [Example 578]: the results for the half-maximal inhibitory concentration (IC50) in assay [1], in assay [2] and in assay [3] were 4190 nM, 0.53 nM and 287 nM, respectively.

As for `COc1cc(-c2[nH]c3cc(C)c(C4CCN(C5COC5)CC4)nc3c2C(C)C)cn2ncnc12` [Example 579], the results for the half-maximal inhibitory concentration (IC50) in assay [1], in assay [2] and in assay [3] were 1840 nM, 0.39 nM and 79 nM, respectively.

As to `Cc1cc(-c2[nH]c3cc(F)c(C4CCN(CC(=O)N(C)C)CC4)nc3c2C(C)C)cn2ncnc12` [Example 580], the half-maximal inhibitory concentration (IC50) in assay [1] worked out at 1790 nM; in assay [2], 0.41 nM; in assay [3] it was 8.7 nM.

`Cc1cc2[nH]c(-c3cc(C)c4ncnn4c3)c(C(C)C)c2nc1C1CCN(CC(=O)N(C)C)CC1` [Example 581]: the IC50 was found to be 4920 nM in assay [1], 0.3 nM in assay [2] and 79 nM in assay [3].

Take `Cc1cc(-c2[nH]c3cc(F)c(C4CCN(CCS(C)(=O)=O)CC4)nc3c2C(C)C)cn2ncnc12` [Example 582]: the figures for the IC50 in assay [1], in assay [2] and in assay [3] were 7460 nM, 0.99 nM and 12 nM, respectively.

`COc1cc(-c2[nH]c3cc(F)c(C4CCN(CC(=O)N(C)C)CC4)nc3c2C(C)C)cn2ncnc12` [Example 583]: the IC50 in assay [1] was 1550 nM; in assay [2], 0.32 nM; in assay [3], 5.1 nM.

For the compound `COc1cc(-c2[nH]c3cc(C)c(C4CCN(CC(=O)N(C)C)CC4)nc3c2C(C)C)cn2ncnc12` [Example 584], the IC50 came to 2010 nM in assay [1], 0.24 nM in assay [2] and 29 nM in assay [3].

On to `Cc1cc(-c2[nH]c3cc(F)c(C4CCN(C(=O)CN(C)C)CC4)nc3c2C(C)C)cn2ncnc12` [Example 585], for which the IC50 in assay [1] came out at 1840 nM; in assay [2], 0.46 nM; in assay [3] it was 8.6 nM.

As for `Cc1cc2[nH]c(-c3cc(C)c4ncnn4c3)c(C(C)C)c2nc1C1CCN(C(=O)CN(C)C)CC1` [Example 586], the half-maximal inhibitory concentration (IC50) in assay [1] came out at 2900 nM; in assay [2], 0.75 nM; in assay [3], 98 nM.

For `COc1cc(-c2[nH]c3cc(C)c(C4CCN(CC(C)(C)O)CC4)nc3c2C(C)C)cn2ncnc12` [Example 587], the values for the IC50 in assay [1], in assay [2] and in assay [3] were 1410 nM, 0.31 nM and 27 nM, respectively.

`Cc1cc(-c2[nH]c3cc(F)c(C4CCN(C5COC5)CC4)nc3c2C(C)C)cn2ncnc12` [Example 588]: the results for the IC50 in assay [1], in assay [2] and in assay [3] were 16100 nM, 2.3 nM and 42 nM, respectively.

In the case of `COc1cc(-c2[nH]c3cc(C)c(C4CCN(C5CCOCC5)CC4)nc3c2C(C)C)cn2ncnc12` [Example 589], the concentration for half-maximal inhibition (IC50) in assay [1] came out at 1060 nM; in assay [2] it was 0.25 nM; in assay [3], 62 nM.

Turning to `COc1cc(-c2[nH]c3ccc(OCC4CCN(C)CC4)nc3c2C(C)C)cn2ncnc12` [Example 590, 6-(3-isopropyl-5-((1-methylpiperidin-4-yl)methoxy)-1H-pyrrolo[3,2-b]pyridin-2-yl)-8-methoxy-[1,2,4]triazolo[1,5-a]pyridine], the IC50 stood at 3550 nM in assay [1], 3 nM in assay [2] and 4.7 nM in assay [3].

On to `COc1cc(-c2[nH]c3ccc(OCC4CCN(C5CCOCC5)CC4)nc3c2C(C)C)cn2ncnc12` [Example 591, 6-(3-isopropyl-5-((1-(tetrahydro-2H-pyran-4-yl)piperidin-4-yl)methoxy)-1H-pyrrolo[3,2-b]pyridin-2-yl)-8-methoxy-[1,2,4]triazolo[1,5-a]pyridine], for which the half-inhibitory concentration (IC50) is 2850 nM in assay [1], 4.8 nM in assay [2] and 7.7 nM in assay [3].

For the compound `COc1cc(-c2[nH]c3ccc(OCC4CN(C(C)C)C4)nc3c2C(C)C)cn2ncnc12` [Example 592, 6-(3-isopropyl-5-((1-isopropylazetidin-3-yl)methoxy)-1H-pyrrolo[3,2-b]pyridin-2-yl)-8-methoxy-[1,2,4]triazolo[1,5-a]pyridine], the IC50 is 2240 nM in assay [1], 2.9 nM in assay [2] and 7.4 nM in assay [3].

`CCCN1CCC(Oc2ccc3[nH]c(-c4cc(OC)c5ncnn5c4)c(C(C)C)c3n2)CC1` [Example 593, 6-(3-isopropyl-5-((1-propylpiperidin-4-yl)oxy)-1H-pyrrolo[3,2-b]pyridin-2-yl)-8-methoxy-[1,2,4]triazolo[1,5-a]pyridine]: the half-maximal inhibitory concentration (IC50) in assay [1] was found to be 974 nM; in assay [2] it was 1.4 nM; in assay [3], 2.6 nM.

For the compound `Cc1cc(-c2[nH]c3ccc(OC4CCN(C)CC4)nc3c2C(C)C)cn2ncnc12` [Example 594, 6-(3-isopropyl-5-((1-methylpiperidin-4-yl)oxy)-1H-pyrrolo[3,2-b]pyridin-2-yl)-8-methyl-[1,2,4]triazolo[1,5-a]pyridine], the IC50 in assay [1] is 7910 nM; in assay [2], 3.9 nM; in assay [3], 16 nM.

On to `COc1cc(-c2[nH]c3ccc(OC4CN(C5CCOCC5)C4)nc3c2C(C)C)cn2ncnc12` [Example 595, 6-(3-isopropyl-5-((1-(tetrahydro-2H-pyran-4-yl)azetidin-3-yl)oxy)-1H-pyrrolo[3,2-b]pyridin-2-yl)-8-methoxy-[1,2,4]triazolo[1,5-a]pyridine], for which the results for the IC50 in assay [1], in assay [2] and in assay [3] were 10900 nM, 122 nM and > 3120 nM, respectively.

Consider `COc1cc(-c2[nH]c3ccc(OC4CN(C)C4)nc3c2C(C)C)cn2ncnc12` [Example 596, 6-(3-isopropyl-5-((1-methylazetidin-3-yl)oxy)-1H-pyrrolo[3,2-b]pyridin-2-yl)-8-methoxy-[1,2,4]triazolo[1,5-a]pyridine], for which the values for the half-inhibitory concentration (IC50) in assay [1], in assay [2] and in assay [3] were 3200 nM, 13 nM and 67 nM, respectively.

`COc1cc(-c2[nH]c3ccc(OCC4CCN(CC(C)(C)O)CC4)nc3c2C(C)C)cn2ncnc12` [Example 597, 1-(4-(((3-isopropyl-2-(8-methoxy-[1,2,4]triazolo[1,5-a]pyridin-6-yl)-1H-pyrrolo[3,2-b]pyridin-5-yl)oxy)methyl)piperidin-1-yl)-2-methylpropan-2-ol]: the half-maximal inhibitory concentration (IC50) stood at 918 nM in assay [1], 1.3 nM in assay [2] and 1.2 nM in assay [3].

As for `COc1cc(-c2[nH]c3ccc(OCC4CCN(C(C)C)CC4)nc3c2C(C)C)cn2ncnc12` [Example 598, 6-(3-isopropyl-5-((1-isopropylpiperidin-4-yl)methoxy)-1H-pyrrolo[3,2-b]pyridin-2-yl)-8-methoxy-[1,2,4]triazolo[1,5-a]pyridine], the IC50 was found to be 949 nM in assay [1], 0.81 nM in assay [2] and 3.1 nM in assay [3].

For the compound `COc1cc(-c2[nH]c3ccc(OCC4CN(CC(C)(C)O)C4)nc3c2C(C)C)cn2ncnc12` [Example 599], the IC50 in assay [1] was found to be 3050 nM; in assay [2], 2.7 nM; in assay [3] it was 4.8 nM.

Consider `COc1cc(-c2[nH]c3ccc(OC4CCN(C)CC4)nc3c2C(C)C)cn2ncnc12` [Example 600, 6-(3-isopropyl-5-((1-methylpiperidin-4-yl)oxy)-1H-pyrrolo[3,2-b]pyridin-2-yl)-8-methoxy-[1,2,4]triazolo[1,5-a]pyridine], for which the IC50 in assay [1] stood at 2050 nM; in assay [2], 0.75 nM; in assay [3], 6.2 nM.

As to `COc1ccc2[nH]c(-c3cc(OC)c4ncnn4c3)c(C(C)C)c2n1` [Example 601, 6-(3-isopropyl-5-methoxy-1H-pyrrolo[3,2-b]pyridin-2-yl)-8-methoxy-[1,2,4]triazolo[1,5-a] pyridine], the IC50 was > 50000 nM in assay [1], 46 nM in assay [2] and 46 nM in assay [3].
